Results from patent publication US8501946B2 (Glaxo Group Limited, priority 2009, dated 2013).

Biological target: T1, human recombinant P2X7 receptors (Homo sapiens, UniProt Q99572)
T1 construct: expressed in transfected cells
T1 sequence (Q99572 1-595): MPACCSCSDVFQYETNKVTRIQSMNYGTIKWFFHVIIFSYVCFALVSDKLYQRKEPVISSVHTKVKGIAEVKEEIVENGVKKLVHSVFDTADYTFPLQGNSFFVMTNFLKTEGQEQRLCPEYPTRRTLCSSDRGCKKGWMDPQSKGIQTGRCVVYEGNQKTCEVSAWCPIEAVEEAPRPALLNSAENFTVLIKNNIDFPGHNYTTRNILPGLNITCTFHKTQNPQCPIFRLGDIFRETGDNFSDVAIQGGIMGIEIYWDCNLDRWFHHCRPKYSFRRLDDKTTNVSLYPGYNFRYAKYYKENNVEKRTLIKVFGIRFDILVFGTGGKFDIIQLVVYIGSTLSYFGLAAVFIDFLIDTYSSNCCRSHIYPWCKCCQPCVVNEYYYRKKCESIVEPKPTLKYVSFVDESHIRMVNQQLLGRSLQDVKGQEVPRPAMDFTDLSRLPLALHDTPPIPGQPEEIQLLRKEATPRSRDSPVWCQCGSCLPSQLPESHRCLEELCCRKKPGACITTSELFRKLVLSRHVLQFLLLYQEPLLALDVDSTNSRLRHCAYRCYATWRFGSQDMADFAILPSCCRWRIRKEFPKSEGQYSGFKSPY
Assay: Ethidium Accumulation Assay 1 (HEK293 cells, ATP-induced ethidium uptake)
Type: cell-based
Conditions: HEK293 cells expressing human P2X7; 1 mM ATP; sometimes mean of more than one measurement; read-out: Assay 1 (antagonist pIC50 for blocking ATP responses) (converted)
Description: Eithidium Accumulation Assay 1
Studies were performed using NaCl assay buffer of the following composition: 140 mM NaCl, 10 mM HEPES [4-(2-hydroxyethyl)-1-piperazine-1-ethanesulfonic acid], 5 mM N-methyl-D-glucamine, 5.6 mM KCl, 10 mM D-glucose, 0.5 mM CaCl2 (pH 7.4).
Human Embryonic Kidney (HEK) 293 cells, stably expressing human recombinant P2X7 receptors, were grown in poly-D-lysine pretreated 96 well plates for 18-24 hours.
The cells were washed twice with 350 μl of the assay buffer, before addition of 50 μl of the assay buffer containing the putative P2X7 receptor antagonist compound. (A small amount of dimethyl sulfoxide, for initially dissolving the compound, is optionally used and present in this 50 μl test compound sample.) The cells were then incubated at room temperature (19-21° C.) for 30 min before addition of ATP and ethidium (100 μM final assay concentration). The ATP concentration was chosen to be close to the EC80 for the receptor type and was 1 mM for studies on the human P2X7 receptor. Incubations were continued for 8 or 16 min and were terminated by addition of 25 μl of 1.3M sucrose containing 4 mM of the P2X7 receptor antagonist Reactive Black 5 (Aldrich). […] Antagonist pIC50 values for blocking ATP responses were determined using iterative curve fitting techniques.

| IC50 [µM] | SMILES |
| --- | --- |
| < 0.1 | O=C(c1ccc(F)cc1Cl)N1CCn2c(nnc2-c2cccc(Cl)c2Cl)C1 [Example 130, 7-[(2-chloro-4-fluorophenyl)carbonyl]-3-(2,3-dichlorophenyl)-5,6,7,8-tetrahydro[1,2,4]triazolo[4,3-a]pyrazine] |
| < 0.501 | Cn1ccnc1-c1nnc2n1CCN(C(=O)c1ccc(F)cc1Cl)C2 [Example 140, 7-[(2-chloro-4-fluorophenyl)carbonyl]-3-(1-methyl-1H-imidazol-2-yl)-5,6,7,8-tetrahydro[1,2,4]triazolo[4,3-a]pyrazine] |
| < 0.1 | Cc1ccc(-c2nnc3n2CCN(C(=O)c2cccc(C(F)(F)F)c2Cl)C3)nc1 [Example 51, 7-{[2-chloro-3-(trifluoromethyl)phenyl]carbonyl}-3-(5-methyl-2-pyridinyl)-5,6,7,8-tetrahydro[1,2,4]triazolo [4,3-a]pyrazine] |
| < 0.01 | O=C(c1cccc(C(F)(F)F)c1Cl)N1CCn2c(nnc2-c2cccc(F)n2)C1 [Example 53, 7-{[2-chloro-3-(trifluoromethyl)phenyl]carbonyl}-3-(6-fluoro-2-pyridinyl)-5,6,7,8-tetrahydro[1,2,4]triazolo [4,3-a]pyrazine] |
| < 0.01 | O=C(c1ccc(F)cc1Cl)N1CCn2c(nnc2-c2ccccn2)C1 [Example 37, 7-[(2-chloro-4-fluorophenyl)carbonyl]-3-(2-pyridinyl)-5,6,7,8-tetrahydro[1,2,4]triazolo [4,3-a]pyrazine] |
| < 0.01 | Cn1ccc(-c2nnc3n2CCN(C(=O)c2cccc(C(F)(F)F)c2Cl)C3)n1 [Example 27, 7-{[2-chloro-3-(trifluoromethyl)phenyl]carbonyl}-3-(1-methyl-1H-pyrazol-3-yl)-5,6,7,8-tetrahydro[1,2,4]triazolo [4,3-a]pyrazine] |
| < 0.1 | O=C(c1cccc(C(F)(F)F)c1Cl)N1CCn2c(nnc2N2CCC2)C1 [Example 22, 3-(1-azetidinyl)-7-{[2-chloro-3-(trifluoromethyl)phenyl]carbonyl}-5,6,7,8-tetrahydro[1,2,4]triazolo [4,3-a]pyrazine] |
| < 0.1 | O=C(c1ccc(Cl)cc1C(F)(F)F)N1CCn2c(nnc2-c2cnccn2)C1 [Example 142, 7-{[4-chloro-2-(trifluoromethyl)phenyl]carbonyl}-3-(2-pyrazinyl)-5,6,7,8-tetrahydro[1,2,4]triazolo[4,3-a]pyrazine] |
| < 0.01 | O=C(c1ccc(F)cc1Cl)N1CCn2c(nnc2-c2ncccn2)C1 [Example 47, 7-[(2-chloro-4-fluorophenyl)carbonyl]-3-(2-pyrimidinyl)-5,6,7,8-tetrahydro[1,2,4]triazolo [4,3-a]pyrazine] |
| < 0.1 | O=C(c1ccc(F)cc1Cl)N1CCn2c(nnc2-c2ccc(F)cn2)C1 [Example 40, 7-[(2-chloro-4-fluorophenyl)carbonyl]-3-(5-fluoro-2-pyridinyl)-5,6,7,8-tetrahydro[1,2,4]triazolo [4,3-a]pyrazine] |
| < 0.1 | O=C(c1ccc(Cl)cc1Cl)N1CCn2c(nnc2-c2ccc(F)cc2F)C1 [Example 101, 7-[(2,4-dichlorophenyl)carbonyl]-3-(2,4-difluorophenyl)-5,6,7,8-tetrahydro[1,2,4]triazolo [4,3-a]pyrazine] |
| < 0.1 | O=C(c1cccc(C(F)(F)F)c1Cl)N1CCn2c(nnc2C(F)(F)F)C1 [Example 2, 7-{[2-chloro-3-(trifluoromethyl)phenyl]carbonyl}-3-(trifluoromethyl)-5,6,7,8-tetrahydro[1,2,4]triazolo [4,3-a]pyrazine] |
| < 0.01 | O=C(c1ccc(Cl)cc1Cl)N1CCn2c(nnc2-c2ccccn2)C1 [Example 76, 7-[(2,4-dichlorophenyl)carbonyl]-3-(2-pyridinyl)-5,6,7,8-tetrahydro[1,2,4]triazolo [4,3-a]pyrazine] |
| < 0.1 | O=C(c1cccc(C(F)(F)F)c1Cl)N1CCn2c(nnc2N2CCCC2)C1 [Example 19, 7-{[2-chloro-3-(trifluoromethyl)phenyl]carbonyl}-3-(1-pyrrolidinyl)-5,6,7,8-tetrahydro[1,2,4]triazolo [4,3-a]pyrazine] |
| < 0.501 | CC(C)(C)c1nnc2n1CCN(C(=O)c1cccc(C(F)(F)F)c1Cl)C2 [Example 25, 7-{[2-chloro-3-(trifluoromethyl)phenyl]carbonyl}-3-(1,1-dimethylethyl)-5,6,7,8-tetrahydro[1,2,4]triazolo [4,3-a]pyrazine] |
| < 0.1 | O=C(c1cccc(Cl)c1)N1CCn2c(nnc2-c2ccccn2)C1 [Example 80, 7-[(3-chlorophenyl)carbonyl]-3-(2-pyridinyl)-5,6,7,8-tetrahydro[1,2,4]triazolo [4,3-a]pyrazine] |
| < 0.01 | O=C(c1cccc(C(F)(F)F)c1Cl)N1CCn2c(nnc2-c2ccccc2O)C1 [Example 138, 2-(7-{[2-chloro-3-(trifluoromethyl)phenyl]carbonyl}-5,6,7,8-tetrahydro[1,2,4]triazolo[4,3-a]pyrazin-3-yl)phenol] |
| < 0.1 | O=C(c1cccc(Cl)c1Cl)N1CCn2c(nnc2-c2ccc(F)cc2F)C1 [Example 98] |
| < 0.501 | O=C(c1c(F)cccc1Cl)N1CCn2c(nnc2-c2ccccn2)C1 [Example 79, 7-[(2-chloro-6-fluorophenyl)carbonyl]-3-(2-pyridinyl)-5,6,7,8-tetrahydro[1,2,4]triazolo [4,3-a]pyrazine] |
| < 0.1 | Cc1cccnc1-c1nnc2n1CCN(C(=O)c1ccc(F)cc1Cl)C2 [Example 32, 7-[(2-chloro-4-fluorophenyl)carbonyl]-3-(3-methyl-2-pyridinyl)-5,6,7,8-tetrahydro[1,2,4]triazolo[4,3-a]pyrazine] |
| < 0.501 | O=C(c1c(Cl)cccc1Cl)N1CCn2c(nnc2-c2ccccn2)C1 [Example 89, 7-[(2,6-dichlorophenyl)carbonyl]-3-(2-pyridinyl)-5,6,7,8-tetrahydro[1,2,4]triazolo [4,3-a]pyrazine] |
| < 0.1 | CCc1nnc2n1CCN(C(=O)c1cccc(Cl)c1Cl)C2 [Example 5, 7-[(2,3-dichlorophenyl)carbonyl]-3-ethyl-5,6,7,8-tetrahydro[1,2,4]triazolo [4,3-a]pyrazine] |
| < 0.501 | Cc1cc(-c2nnc3n2CCN(C(=O)c2ccc(F)cc2Cl)C3)no1 [Example 71, 7-[(2-chloro-4-fluorophenyl)carbonyl]-3-(5-methyl-3-isoxazolyl)-5,6,7,8-tetrahydro[1,2,4]triazolo [4,3-a]pyrazine] |
| < 0.1 | O=C(c1cccc(C(F)(F)F)c1F)N1CCn2c(Br)nnc2C1 [Example 9, 3-bromo-7-{[2-fluoro-3-(trifluoromethyl)phenyl]carbonyl}-5,6,7,8-tetrahydro[1,2,4]triazolo [4,3-a]pyrazine] |
| < 0.01 | O=C(c1cccc(Cl)c1Cl)N1CCn2c(nnc2-c2ccccc2)C1 [Example 70, 7-[(2,3-dichlorophenyl)carbonyl]-3-phenyl-5,6,7,8-tetrahydro[1,2,4]triazolo [4,3-a]pyrazine] |
| < 0.1 | O=C(c1ccc(Cl)c(Cl)c1)N1CCn2c(nnc2-c2cnccn2)C1 [Example 115, 7-[(3,4-dichlorophenyl)carbonyl]-3-(2-pyrazinyl)-5,6,7,8-tetrahydro[1,2,4]triazolo[4,3-a]pyrazine] |
| < 0.1 | O=C(c1ccc(F)c(Cl)c1)N1CCn2c(nnc2-c2cnccn2)C1 [Example 105, 7-[(3-chloro-4-fluorophenyl)carbonyl]-3-(2-pyrazinyl)-5,6,7,8-tetrahydro[1,2,4]triazolo [4,3-a]pyrazine] |
| < 0.01 | O=C(c1ccc(Cl)cc1Cl)N1CCn2c(nnc2-c2cnccn2)C1 [Example 92, 7-[(2,4-dichlorophenyl)carbonyl]-3-(2-pyrazinyl)-5,6,7,8-tetrahydro[1,2,4]triazolo[4,3-a]pyrazine] |
| < 0.1 | O=C(c1cccc(C(F)(F)F)c1Cl)N1CCn2c(nnc2-c2ccncn2)C1 [Example 12, 7-{[2-chloro-3-(trifluoromethyl)phenyl]carbonyl}-3-(4-pyrimidinyl)-5,6,7,8-tetrahydro[1,2,4]triazolo[4,3-a]pyrazine] |
| < 0.1 | O=C(c1ccc(Cl)cc1F)N1CCn2c(nnc2-c2ccccn2)C1 [Example 96, 7-[(4-chloro-2-fluorophenyl)carbonyl]-3-(2-pyridinyl)-5,6,7,8-tetrahydro[1,2,4]triazolo [4,3-a]pyrazine] |
